Results reported in ChEMBL document CHEMBL3885861, “Open TG-GATES”.

Species on record: Rattus norvegicus
Assay: Open TG-GATES - Regimen: Single
Format: toxicity, organism-based, Sprague-Dawley
Parameters: regimen Single, gender Male, age 6 weeks
Conditions: in vivo, po, route gavage; for gamma-GTP / ALP / ALT / AST / BUN / CRE / Ca / Cl / DBIL / GLC / IP / K / LDH / Na / PL / RALB / TBIL / TG / TP: tissue Plasma; for APTT / Bas / Eos / Fbg / Hb / Ht / Lym / MCH / MCV / Mono / Neu / PT / Plat / RBC / Ret / WBC: tissue Blood; for KIDNEY_L / KIDNEY_R / KIDNEY_TOTAL: tissue Kidney; for LIVER: tissue Liver
[1] = 100 mg/kg, 3 h, dose level Middle
[2] = 100 mg/kg, 6 h, dose level Middle
[3] = 100 mg/kg, 9 h, dose level Middle
[4] = 100 mg/kg, 24 h, dose level Middle
[5] = 300 mg/kg, 3 h, dose level High
[6] = 300 mg/kg, 6 h, dose level High
[7] = 300 mg/kg, 9 h, dose level High
[8] = 300 mg/kg, 24 h, dose level High

NC(=O)N1c2ccccc2C=Cc2ccccc21 [CARBAMAZEPINE]
gamma-GTP (30 mg/kg, 24 h, dose level Low): 0.8 IU/L
TERMINAL_BW [1]: 216.3 g
APTT [1]: 19.3 s
Bas [1]: 0%
Eos [1]: 1.2%
Fbg [1]: 209.4 mg/dL
Hb [1]: 13.2 g/dL
Ht [1]: 38.8%
Lym [1]: 77.4%
MCH [1]: 21.3 pg
MCV [1]: 62.7 fL
Mono [1]: 2.8%
Neu [1]: 17.2%
PT [1]: 12.4 s
Plat [1]: 121.8 x10_4/uL
RBC [1]: 619 x10_4/ul
Ret [1]: 7.2%
WBC [1]: 96 x10_2/uL
KIDNEY_L [1]: 0.9 g
KIDNEY_R [1]: 0.9 g
KIDNEY_TOTAL [1]: 1.9 g
LIVER [1]: 9.8 g
ALP [1]: 792.4 IU/L
ALT [1]: 35.8 IU/L
AST [1]: 63.8 IU/L
BUN [1]: 9.2 mg/dL
CRE [1]: 0.4 mg/dL
Ca [1]: 10.4 mg/dL
Cl [1]: 102 meq/L
DBIL [1]: 0.076 mg/dL
GLC [1]: 190 mg/dL
IP [1]: 9.9 mg/dL
K [1]: 3.8 meq/L
LDH [1]: 202 IU/L
Na [1]: 140.6 meq/L
PL [1]: 152.4 mg/dL
RALB [1]: 3.3 g/dL
TBIL [1]: 0.1 mg/dL
TG [1]: 62 mg/dL
TP [1]: 5.5 g/dL
gamma-GTP [1]: 1 IU/L
TERMINAL_BW [2]: 210.4 g
APTT [2]: 20.3 s
Bas [2]: 0%
Eos [2]: 1%
Fbg [2]: 210 mg/dL
Hb [2]: 13.2 g/dL
Ht [2]: 38.7%
Lym [2]: 80.4%
MCH [2]: 20.8 pg
MCV [2]: 61.1 fL
Mono [2]: 2.6%
Neu [2]: 14.8%
PT [2]: 12.8 s
Plat [2]: 121.9 x10_4/uL
RBC [2]: 633.2 x10_4/ul
Ret [2]: 6.5%
WBC [2]: 95.7 x10_2/uL
KIDNEY_L [2]: 0.9 g
KIDNEY_R [2]: 0.9 g
KIDNEY_TOTAL [2]: 1.8 g
LIVER [2]: 9.1 g
ALP [2]: 803.4 IU/L
ALT [2]: 30.8 IU/L
AST [2]: 60.4 IU/L
BUN [2]: 9.4 mg/dL
CRE [2]: 0.4 mg/dL
Ca [2]: 10.6 mg/dL
Cl [2]: 102.4 meq/L
DBIL [2]: 0.084 mg/dL
GLC [2]: 190.6 mg/dL
IP [2]: 9.4 mg/dL
K [2]: 3.8 meq/L
LDH [2]: 175.2 IU/L
Na [2]: 140.8 meq/L
PL [2]: 142 mg/dL
RALB [2]: 3.4 g/dL
TBIL [2]: 0.1 mg/dL
TG [2]: 58.4 mg/dL
TP [2]: 5.6 g/dL
gamma-GTP [2]: 0.6 IU/L
TERMINAL_BW [3]: 211 g
APTT [3]: 18.6 s
Bas [3]: 0%
Eos [3]: 1%
Fbg [3]: 204.6 mg/dL
Hb [3]: 13.3 g/dL
Ht [3]: 38.7%
Lym [3]: 81.4%
MCH [3]: 21.3 pg
MCV [3]: 61.9 fL
Mono [3]: 2.4%
Neu [3]: 14.8%
PT [3]: 13.2 s
Plat [3]: 120.7 x10_4/uL
RBC [3]: 625.2 x10_4/ul
Ret [3]: 6.4%
WBC [3]: 91.7 x10_2/uL
KIDNEY_L [3]: 1 g
KIDNEY_R [3]: 1 g
KIDNEY_TOTAL [3]: 2 g
LIVER [3]: 8.6 g
ALP [3]: 828.4 IU/L
ALT [3]: 25.2 IU/L
AST [3]: 57.6 IU/L
BUN [3]: 9.6 mg/dL
CRE [3]: 0.3 mg/dL
Ca [3]: 10.3 mg/dL
Cl [3]: 101.6 meq/L
DBIL [3]: 0.064 mg/dL
GLC [3]: 197 mg/dL
IP [3]: 10.1 mg/dL
K [3]: 3.7 meq/L
LDH [3]: 176.2 IU/L
Na [3]: 140.2 meq/L
PL [3]: 133.2 mg/dL
RALB [3]: 3.4 g/dL
TBIL [3]: 0.1 mg/dL
TG [3]: 45.6 mg/dL
TP [3]: 5.4 g/dL
gamma-GTP [3]: 0.8 IU/L
TERMINAL_BW [4]: 226.1 g
APTT [4]: 20.2 s
Bas [4]: 0%
Eos [4]: 0.8%
Fbg [4]: 211.6 mg/dL
Hb [4]: 13.3 g/dL
Ht [4]: 39.4%
Lym [4]: 80%
MCH [4]: 21.1 pg
MCV [4]: 62.7 fL
Mono [4]: 2.8%
Neu [4]: 15.6%
PT [4]: 12.2 s
Plat [4]: 123.8 x10_4/uL
RBC [4]: 629 x10_4/ul
Ret [4]: 5.9%
WBC [4]: 88.7 x10_2/uL
KIDNEY_L [4]: 1 g
KIDNEY_R [4]: 1.1 g
KIDNEY_TOTAL [4]: 2.1 g
LIVER [4]: 11.4 g
ALP [4]: 820.6 IU/L
ALT [4]: 33.8 IU/L
AST [4]: 66.4 IU/L
BUN [4]: 18.4 mg/dL
CRE [4]: 0.4 mg/dL
Ca [4]: 10.6 mg/dL
Cl [4]: 103.2 meq/L
DBIL [4]: 0.1 mg/dL
GLC [4]: 199 mg/dL
IP [4]: 7.4 mg/dL
K [4]: 4.3 meq/L
LDH [4]: 215 IU/L
Na [4]: 140.2 meq/L
PL [4]: 147 mg/dL
RALB [4]: 3.3 g/dL
TBIL [4]: 0.2 mg/dL
TP [4]: 5.5 g/dL
gamma-GTP [4]: 1 IU/L
TERMINAL_BW [5]: 216.2 g
APTT [5]: 20.3 s
Bas [5]: 0%
Eos [5]: 1%
Fbg [5]: 202 mg/dL
Hb [5]: 13 g/dL
Ht [5]: 38.4%
Lym [5]: 80%
MCH [5]: 21.6 pg
MCV [5]: 63.7 fL
Mono [5]: 2.2%
Neu [5]: 15.8%
PT [5]: 12.5 s
Plat [5]: 116.4 x10_4/uL
RBC [5]: 602.6 x10_4/ul
Ret [5]: 7%
WBC [5]: 87.3 x10_2/uL
KIDNEY_L [5]: 1 g
KIDNEY_R [5]: 1 g
KIDNEY_TOTAL [5]: 2 g
LIVER [5]: 9.7 g
ALP [5]: 789.4 IU/L
ALT [5]: 34.4 IU/L
AST [5]: 65 IU/L
BUN [5]: 10.2 mg/dL
CRE [5]: 0.4 mg/dL
Ca [5]: 10.3 mg/dL
Cl [5]: 101.8 meq/L
DBIL [5]: 0.082 mg/dL
GLC [5]: 194.8 mg/dL
IP [5]: 10 mg/dL
K [5]: 3.8 meq/L
LDH [5]: 199.6 IU/L
Na [5]: 140.2 meq/L
PL [5]: 150.8 mg/dL
RALB [5]: 3.4 g/dL
TBIL [5]: 0.1 mg/dL
TG [5]: 63 mg/dL
TP [5]: 5.4 g/dL
gamma-GTP [5]: 1 IU/L
TERMINAL_BW [6]: 212.3 g
APTT [6]: 20 s
Bas [6]: 0%
Eos [6]: 1%
Fbg [6]: 205.6 mg/dL
Hb [6]: 13.2 g/dL
Ht [6]: 38.6%
Lym [6]: 80.6%
MCH [6]: 21.2 pg
MCV [6]: 61.9 fL
Mono [6]: 3%
Neu [6]: 14%
PT [6]: 12.8 s
Plat [6]: 123.1 x10_4/uL
RBC [6]: 623 x10_4/ul
Ret [6]: 6.2%
WBC [6]: 86.4 x10_2/uL
KIDNEY_L [6]: 1 g
KIDNEY_R [6]: 1 g
KIDNEY_TOTAL [6]: 2 g
LIVER [6]: 9.2 g
ALP [6]: 891 IU/L
ALT [6]: 35.4 IU/L
AST [6]: 68 IU/L
BUN [6]: 8.6 mg/dL
CRE [6]: 0.4 mg/dL
Ca [6]: 10.4 mg/dL
Cl [6]: 102.8 meq/L
DBIL [6]: 0.074 mg/dL
GLC [6]: 188.2 mg/dL
IP [6]: 9.9 mg/dL
K [6]: 3.7 meq/L
LDH [6]: 203.4 IU/L
Na [6]: 140.8 meq/L
PL [6]: 146 mg/dL
RALB [6]: 3.4 g/dL
TBIL [6]: 0.1 mg/dL
TG [6]: 41.8 mg/dL
TP [6]: 5.6 g/dL
gamma-GTP [6]: 0.6 IU/L
TERMINAL_BW [7]: 212.2 g
APTT [7]: 20 s
Bas [7]: 0%
Eos [7]: 1%
Fbg [7]: 221.6 mg/dL
Hb [7]: 13.2 g/dL
Ht [7]: 38.3%
Lym [7]: 80.6%
MCH [7]: 20.7 pg
MCV [7]: 60.2 fL
Mono [7]: 2.2%
Neu [7]: 15.2%
PT [7]: 13.3 s
Plat [7]: 123.1 x10_4/uL
RBC [7]: 637 x10_4/ul
Ret [7]: 5.7%
WBC [7]: 77.3 x10_2/uL
KIDNEY_L [7]: 1 g
KIDNEY_R [7]: 1 g
KIDNEY_TOTAL [7]: 1.9 g
LIVER [7]: 8.5 g
ALP [7]: 816 IU/L
ALT [7]: 26.6 IU/L
AST [7]: 60.4 IU/L
BUN [7]: 9.4 mg/dL
CRE [7]: 0.3 mg/dL
Ca [7]: 10.3 mg/dL
Cl [7]: 101 meq/L
DBIL [7]: 0.068 mg/dL
GLC [7]: 195.8 mg/dL
IP [7]: 9.9 mg/dL
K [7]: 3.6 meq/L
LDH [7]: 200.6 IU/L
Na [7]: 140.6 meq/L
PL [7]: 139 mg/dL
RALB [7]: 3.4 g/dL
TBIL [7]: 0.1 mg/dL
TG [7]: 47.2 mg/dL
TP [7]: 5.6 g/dL
gamma-GTP [7]: 0.6 IU/L
TERMINAL_BW [8]: 214.8 g
APTT [8]: 20.8 s
Bas [8]: 0%
Eos [8]: 0.8%
Fbg [8]: 200.6 mg/dL
Hb [8]: 13.7 g/dL
Ht [8]: 40.4%
Lym [8]: 86%
MCH [8]: 21.7 pg
MCV [8]: 63.9 fL
Mono [8]: 2%
Neu [8]: 10.6%
PT [8]: 13 s
Plat [8]: 127.9 x10_4/uL
RBC [8]: 632.8 x10_4/ul
Ret [8]: 6%
WBC [8]: 91 x10_2/uL
KIDNEY_L [8]: 1 g
KIDNEY_R [8]: 1 g
KIDNEY_TOTAL [8]: 2 g
LIVER [8]: 9.7 g
ALP [8]: 927.8 IU/L
ALT [8]: 34.6 IU/L
AST [8]: 65 IU/L
BUN [8]: 14.8 mg/dL
CRE [8]: 0.4 mg/dL
Ca [8]: 10.4 mg/dL
Cl [8]: 103.2 meq/L
DBIL [8]: 0.1 mg/dL
GLC [8]: 203.2 mg/dL
IP [8]: 7.9 mg/dL
K [8]: 3.6 meq/L
LDH [8]: 212.2 IU/L
Na [8]: 141 meq/L
PL [8]: 121.4 mg/dL
RALB [8]: 3.4 g/dL
TBIL [8]: 0.2 mg/dL
TG [8]: 88 mg/dL
TP [8]: 5.6 g/dL
gamma-GTP [8]: 0.8 IU/L
